# In patent US9814241B2:
# Experiments:
# [1] = system: Alternaria solani; experiment: Alternaria test (tomatoes)/preventive; format: in vivo; settings: preventive, evaluated 3 days after inoculation
# [2] = system: Venturia inaequalis; experiment: Venturia test (apples)/preventive; settings: preventive, 100 ppm a.i., evaluated 10 days after inoculation
# Method: After the spray coating has dried on, the plants are inoculated with an aqueous conidia suspension of the causal agent of apple scab (Venturia inaequalis) and then remain for 1 day in an incubation cabinet at approximately 20° C. and a relative atmospheric humidity of 100%.
# The plants are then placed in a greenhouse at approximately 21° C. and a relative atmospheric humidity of approximately 90%.
# The test is evaluated 10 days after the inoculation.
# [3] = system: Sphaerotheca fuliginea; experiment: Sphaerotheca test (cucumbers)/preventive; settings: preventive, 100 ppm a.i., evaluated 7 days after inoculation
# Method: After the spray coating has dried on, the plants are inoculated with an aqueous spore suspension of Sphaerotheca fuliginea. The plants are then placed in a greenhouse at approximately 23° C. and a relative atmospheric humidity of approximately 70%.
# The test is evaluated 7 days after the inoculation.
compound,measurement,setting,value
"N#Cc1ccccc1NC(=O)c1snc(Cl)c1Cl [F187, isotianil]",Efficacy in % Found,"[1]; Table C1, tomatoes, 50 ppm a.i.",36%
same,Efficacy in % Found,[2],0%
same,Efficacy in % Found,[3],0%
phosphorous acid and its salts [F298],Efficacy in % Found,"[1]; Table C2, tomatoes, 400 ppm a.i.",35%
"Cc1cc(C(F)(F)F)nn1CC(=O)N1CCC(c2nc(C3=NOC(c4c(F)cccc4F)C3)cs2)CC1 (stereo not drawn) [F315, 1-(4-{4-[5-(2,6-difluorophenyl)-4,5-dihydro-1,2-oxazol-3-yl]-1,3-thiazol-2-yl}piperidin-1-yl)-2-[5-methyl-3-(trifluoromethyl)-1H-pyrazol-1-yl]ethanone]",Efficacy in % Found,"[1]; Table C1, tomatoes, 100 ppm a.i.",0%
fosetyl-aluminium [F281],Efficacy in % Found,"[1]; Table C2, tomatoes, 100 ppm a.i.",0%
